≈ marks a conversion by molar mass, not a printed value.
Tests used:
[1] = target 17 mg/mL DPZ; formulation containing cyclodextrin (HPβCD); visual observation
Experimental: The appropriate aqueous vehicle was added onto the powder to achieve a final concentration of 17 mg/mL, vortex mixed, and sonicated. The pass/fail criteria for the formulation was determined through visual observation.
The screening assay was therefore designed to target a concentration of 17 mg/mL, corresponding to a […] dose in 600 μL dose volume. […] The excipients screened included PEG 400, PG, DSPE-PEG 2000, Glycerol, Kolliphor 188, HPβCD, and BSA. […] Only the formulation containing cyclodextrin was successful and therefore taken forward for further evaluation as a potential co-formulation vehicle.

[2] = Pharmacokinetic study after subcutaneous injection in rats; format: in vivo; settings: DPZ 0.5 mg/kg
Experimental: For the PK study, MEDI0382 alone in buffer was prepared at 0.5 mg/mL in 50 mM Na Phosphate buffer pH 7.8+1.85% propylene glycol (PG) (J. T. Baker).
The cyclodextrin vehicle used for the PK study was 7% w/v HPβCD in 50 mM Na Phosphate buffer pH 7.8+0.5% v PG. The PG was added to adjust the osmolarity of the formulations to 260 mOsm. […] In parallel, MEDT0382 alone in buffer was prepared at 0.5 mg/mL in 50 mM NaP buffer pH 7.8+1.85% v/v PG. The formulations were then diluted to 1/10 with their corresponding vehicle.
Three animals per group were included, and serial blood sampling for PK evaluation occurred at 0.5, 1, 2, 4, 7, and 24 hr post dose.

physchem = test: physchem
Experimental: Various HPβCD (Kleptose HPB, Roquette) solutions at increasing concentrations were prepared in water ranging from 5% to 20% (w/v). Briefly, HPβCD was weighed in a volumetric flask and purified water was added up to 80% (v/v) of final volume. The flask was mixed until full solubilisation and made up to final volume with purified water. […] Each concentration was done in duplicate. The formulations were left under magnetic stirring for 21 h 40 min. Each sample was then transferred to a 1.5 mL eppendorf and centrifuged at 13,000 rpm for 10 min. Then 200 μL was taken from the supernatant and centrifuged again in a 1.5 mL eppendorf for 30 min at 13,000 rpm. The samples were finally diluted in buffer A (95% HPLC water/5% ACN+0.03% TFA), and the concentration was measured by UPLC against a calibration curve validated with quality controls.

[3] = oral administration; cited from earlier work
[4] = molecular target: T1, human recombinant GLP-1 receptor (Homo sapiens, UniProt P43220); test: In vitro potency assay, cAMP response element luciferase reporter in CHO cells; format: cell-based; settings: MEDI0382 in buffer, in cyclodextrin, and co-formulated with DPZ
T1 construct: expressed in transfected cells; host or cells: CHO-K1
T1 sequence (P43220 24-463): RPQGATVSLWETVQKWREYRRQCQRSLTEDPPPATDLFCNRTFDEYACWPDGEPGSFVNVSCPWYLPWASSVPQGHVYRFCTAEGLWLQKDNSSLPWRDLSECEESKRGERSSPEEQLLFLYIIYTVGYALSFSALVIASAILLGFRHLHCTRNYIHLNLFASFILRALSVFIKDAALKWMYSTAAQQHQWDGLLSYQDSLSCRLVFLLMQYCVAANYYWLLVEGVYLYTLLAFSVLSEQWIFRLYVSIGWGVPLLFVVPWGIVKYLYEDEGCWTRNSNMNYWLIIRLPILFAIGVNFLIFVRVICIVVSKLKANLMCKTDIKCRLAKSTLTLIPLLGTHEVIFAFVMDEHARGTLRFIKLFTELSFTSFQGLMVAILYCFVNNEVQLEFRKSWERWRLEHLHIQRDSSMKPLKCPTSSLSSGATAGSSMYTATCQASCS
Experimental: (§1) Briefly, cells were plated at 20,000 cells per well in 96-well white microtiter plates (Corning, USA) and incubated with serially diluted peptide samples for 4 hours prior to lysis and measurement of cAMP dependent luciferase activity using Steady-Glo luciferase substrate (Promega, USA). Plates were read on a SpectraMax Paradigm plate reader (Molecular Devices, USA), and 10-point concentration-response curves were generated in triplicate. Results were expressed as the relative potency of the test sample compared to a reference ligand by calculating the ratio of the reference and sample EC50 values from a 4-PL fit following a test for parallelism using SoftMax Pro software (Molecular Devices, USA), and the reported data was the mean of two independent assays. Curves were fitted using nonlinear regression analysis in GraphPad Prism software 6.03 (GraphPad, USA).
(§2) Although HPβCD enhances the physical stability of the peptide, the loss of alpha-helix could have a dramatic impact on the potency of the peptide. […] The in vitro potency was assessed on CHO cells over-expressing human recombinant GLP-1 or glucagon receptors, and the activity was reported as EC50 values after measurement of cAMP accumulation.

[5] = molecular target: T2, human recombinant glucagon receptor (Homo sapiens, UniProt P47871); test: as above; format: cell-based; settings: MEDI0382 in buffer, in cyclodextrin, and co-formulated with DPZ
T2 construct: expressed in transfected cells; host or cells: CHO-K1
T2 sequence (P47871 26-477): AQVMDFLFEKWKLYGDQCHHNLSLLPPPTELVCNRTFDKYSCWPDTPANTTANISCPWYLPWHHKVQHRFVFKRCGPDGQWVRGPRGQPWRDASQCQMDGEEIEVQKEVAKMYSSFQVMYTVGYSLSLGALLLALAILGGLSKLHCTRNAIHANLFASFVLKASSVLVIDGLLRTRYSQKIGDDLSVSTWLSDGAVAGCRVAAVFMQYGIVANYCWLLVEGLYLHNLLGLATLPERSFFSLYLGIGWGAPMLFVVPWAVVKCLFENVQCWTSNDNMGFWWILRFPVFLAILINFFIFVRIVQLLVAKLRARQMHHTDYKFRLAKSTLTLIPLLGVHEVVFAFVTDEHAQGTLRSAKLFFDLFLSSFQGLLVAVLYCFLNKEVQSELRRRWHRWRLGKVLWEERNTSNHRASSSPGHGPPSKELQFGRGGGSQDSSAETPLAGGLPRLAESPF
Experimental: as §1, §2

non-human primates = settings: repeat injections; cited from earlier work
[6] = tested on: overweight and obese patients with type 2 diabetes; settings: cited from earlier work
DIO mice = settings: repeat injections; cited from earlier work
[7] = cited from earlier work

Compound: CCOc1ccc(Cc2cc([C@@H]3O[C@H](CO)[C@@H](O)[C@H](O)[C@H]3O)ccc2Cl)cc1 [DPZ, dapagliflozin]
- Solubility screen result (pass/fail) [1]: successful
- PK of DPZ in the presence of MEDI0382 [2]: unchanged
- amount of HPβCD required to increase the solubility up to 17 mg/mL (physchem): 5.5 % (w/v)
- solubility change with increasing HPβCD concentration (physchem): linearly increased
- stoichiometry of inclusion complex (phase solubility) (physchem): 1:1
- solubility at 21.67 h (physchem; water, thermodynamic from solid): 1600 µg/mL (≈ 3.91 mM)
- absolute bioavailability [3]: 78%

Compound: OC[C@H]1O[C@@H](c2ccc(Cl)c(Cc3ccc(O[C@H]4CCOC4)cc3)c2)[C@H](O)[C@@H](O)[C@@H]1O [EPZ, empagliflozin]
- solubility change with increasing HPβCD concentration (physchem): linear solubility increase

Compound: CCCCCCCCCCCCCCCC(=O)N[C@@H](CCC(=O)NCCCC[C@H](NC(=O)[C@H](CC(=O)O)NC(=O)[C@H](CO)NC(=O)[C@@H](NC(=O)[C@H](Cc1ccccc1)NC(=O)[C@@H](NC(=O)CNC(=O)[C@H](CCC(N)=O)NC(=O)[C@H](CO)NC(=O)[C@@H](N)Cc1c[nH]cn1)[C@@H](C)O)[C@@H](C)O)C(=O)N[C@@H](CO)C(=O)N[C@@H](CCC(=O)O)C(=O)N[C@@H](Cc1ccc(O)cc1)C(=O)N[C@@H](CC(C)C)C(=O)N[C@@H](CC(=O)O)C(=O)N[C@@H](CO)C(=O)N[C@@H](CCC(=O)O)C(=O)N[C@@H](CCCNC(=N)N)C(=O)N[C@@H](C)C(=O)N[C@@H](CCCNC(=N)N)C(=O)N[C@@H](CC(=O)O)C(=O)N[C@@H](Cc1ccccc1)C(=O)N[C@H](C(=O)N[C@@H](C)C(=O)N[C@@H](Cc1c[nH]c2ccccc12)C(=O)N[C@@H](CC(C)C)C(=O)N[C@@H](CCC(=O)O)C(=O)N[C@@H](C)C(=O)NCC(=O)NCC(=O)O)C(C)C)C(=O)O [MEDI0382]
- EC50 (cAMP accumulation), change between formulations [4]: no change of EC50
- EC50 (cAMP accumulation), change between formulations [5]: no change of EC50
- effect on weight and glucose (non-human primates): marked weight loss and robust glucose control
- clinical efficacy [6]: glucose, weight and liver fat lowering efficacy
- effect on weight and glucose (DIO mice): marked weight loss and robust glucose control

Compound: glucagon
- pKa of N-terminal His alpha-amino group [7]: 7.6
- pKa of N-terminal His imidazole group [7]: 7.4

From patent US20220249617A1, “CYCLODEXTRIN BASED INJECTABLE COFORMULATIONS OF SGLT2 INHIBITORS AND INCRETIN PEPTIDES” (MEDIMMUNE LIMITED, priority 2019, published 2022)
